# Reference: article PMC9926234, “Iterative computational design and crystallographic screening identifies potent inhibitors targeting the Nsp3 macrodomain of SARS-CoV-2” (Proceedings of the National Academy of Sciences of the …, 2023)
# Molecular target: SARS-CoV-2 NSP3 Mac1 (Severe acute respiratory syndrome coronavirus 2, UniProt P0DTD1)
# Type: binding
# Parameters: contains a conserved macrodomain enzyme (Mac1)
# Settings: DSF dose responsiveness, 1 µM nsp3 mac1; adj p given
# Experimental: DSF and associated compound handling was performed as described ([12]), with 5 µM dye “Fluorescent Yellow” (Jacquard iDye Cat #JID1405) used in place of SYPRO Orange. Compounds were tested in triplicate, at seven concentrations in two-fold serial dilutions, at a top concentration of either 1,000 or 100 μM. To minimize experimental noise arising from plate location-based effects on Tma, all concentrations and replicates for each compound were tested within a single region of the microtiter plates, including a DMSO-only control from which ΔTmas were calculated for that compound. […] For each compound, to determine statistical significance of the dose responsive thermal shift, the Spearman’s coefficient was calculated between compound concentration and ΔTma.
row,Compound,Spearman est (compound concentration vs apparent Tm)
1,Clc1cc2c(N3CCCC(c4nnc[nH]4)C3)ncnc2[nH]1 (centres unmarked) [ZINC001187497156],0.32
2,Cc1nc(Cc2noc(Cc3ccc4[nH]ncc4c3)n2)no1 [ZINC000345855262],−0.06
3,Nc1ncnc2c1ncn2CCCc1ccsc1 [ZINC000570815972],0.79
4,COC(=O)CC1CN(c2ncnc3[nH]ccc23)c2ccccc21 (centres unmarked) [ZINC000371804911],0.77
5,CC1c2ccc(F)cc2CCN1C(=O)c1cccc(O)c1 (centres unmarked) [ZINC000679635167],−0.95
6,Cc1cc(C(=O)C(C#N)c2nnc3n2CCCCC3)cc(O)n1 (centres unmarked) [ZINC000183202483],−0.33
7,O=C(Nc1nc2ccccc2c(=O)[nH]1)c1cccnc1 [Z1082933628],0.37
8,CS(=O)(=O)C1CCCN(c2ncnc3[nH]c(Cl)cc23)C1 (centres unmarked) [ZINC000865679550],0.71
9,CNS(=O)(=O)c1cccc(-c2ncnc3[nH]c4ccccc4c23)c1 [ZINC001240776402],−0.29
10,O=c1[nH]ccn2c(CSc3nc4ccccc4s3)nnc12 [ZINC001458791015],0.66
11,Nc1nc(N)c2ncn(Cc3csc(C4CC4)n3)c2n1 [Z4718398585],0.75
12,c1csc(CC2CCN(c3ncnc4[nH]ccc34)C2)n1 (centres unmarked) [ZINC000897286891],−0.05
13,Fc1ccc(F)c(Sc2ncnc3[nH]ccc23)c1 [ZINC000339235289],0.01
14,CN(Cc1nnc2c(=O)[nH]ccn12)C(=O)COC1CC1 [ZINC001364630288],0.73
15,Cc1ccccc1CC(C)c1nc(-c2cc(N)ncn2)no1 (centres unmarked) [ZINC000896334066],0.77
16,Cc1ccccc1CNc1ncnc(-c2ccccc2)n1 [ZINC001184571635],0.82

row,Compound,Spearman est (compound concentration vs apparent Tm)
1,c1ccc2c(c1)N(c1ncnc3[nH]ccc13)CC21CC1 [ZINC000352369310],−0.82
2,CN1C(=O)[C@H]2CN(C(=O)c3ncnc4[nH]ccc34)C[C@H]2C1=O [ZINC001119059028],−0.58
3,CN(C(=O)CN1CCNC(=O)C1)c1ccc(-c2nccs2)cc1 [ZINC000910053700],−0.73
4,Nc1ncc(S(=O)(=O)N2CCC2c2cccc(F)c2)cn1 (centres unmarked) [ZINC001365141527],−0.66
5,Cc1nc(Cc2noc(-c3ncnc4[nH]ccc34)n2)no1 [ZINC000904346960],0.21
6,O=C(c1c(F)ccc(O)c1F)N1CCC(Oc2cccc(F)c2)C1 (centres unmarked) [ZINC000368135547],−0.88
7,CC(c1ccc(Cl)c(Cl)c1)S(=O)(=O)Cc1cn[nH]c1 (centres unmarked) [ZINC000905245728],−0.2
8,Cc1ccc(-c2noc(CCCSC3CCCNC3=O)n2)cc1F (centres unmarked) [ZINC000359061121],0.71
9,O=C(NCc1nc2ccccc2c(=O)[nH]1)Nc1cccnc1 [Z4718398598],−0.41
10,COc1ccc(-c2nnc(NC(=O)Cc3ncccc3F)s2)cc1 [ZINC000350686468],0.17
11,O=C1CC2(CC2)C(CSc2n[nH]c(-c3ccccn3)n2)O1 (centres unmarked) [FRESH00010267028],0.52
12,O=C(NC(C(=O)O)c1c[nH]c2ccccc12)c1ncnc2[nH]ccc12 (centres unmarked) [Z4661819162],−0.51
13,Cc1oc(=O)oc1CSc1ncnc2[nH]cnc12 [ZINC000222377450],0.54
14,Cc1nc(S(=O)(=O)NCc2ccc(-c3ccncc3)cc2)cn1C [ZINC000352487041],0.73
15,Cc1ccc(CC(=O)OCc2noc(C3CC3)n2)cc1O [ZINC000772152995],0.02
16,O=C(c1cccc(O)c1)N1CCC(Nc2ccccc2)C1 (centres unmarked) [ZINC000182324508],0.13

# Same assay, conditions: maximal thermal upshift
row,Compound,DSF max dTma
1,Cc1cc(C(=O)C(C#N)c2nnc3n2CCCCC3)cc(O)n1 (centres unmarked) [ZINC000183202483],0 ˚C
2,CNS(=O)(=O)c1cccc(-c2ncnc3[nH]c4ccccc4c23)c1 [ZINC001240776402],0.27 ˚C
3,CN1C(=O)[C@H]2CN(C(=O)c3ncnc4[nH]ccc34)C[C@H]2C1=O [ZINC001119059028],0 ˚C
4,Nc1ncc(S(=O)(=O)N2CCC2c2cccc(F)c2)cn1 (centres unmarked) [ZINC001365141527],0 ˚C
5,Cc1nc(Cc2noc(-c3ncnc4[nH]ccc34)n2)no1 [ZINC000904346960],0.27 ˚C
6,O=C1CC2(CC2)C(CSc2n[nH]c(-c3ccccn3)n2)O1 (centres unmarked) [FRESH00010267028],0.32 ˚C

# Same assay, conditions: maximal thermal upshift vs DMSO control
row,Compound,DSF max dTma
1,CN(Cc1nnc2c(=O)[nH]ccn12)C(=O)COC1CC1 [Z0288],0.49 °C
2,Cc1ccc(-c2noc(C3CC(=O)N(c4cn[nH]c4)C3)n2)cc1 (centres unmarked) [Z6019],0.27 °C
3,COc1ccc(Cl)cc1Cn1cnc2c(N)ncnc21 [Z0953],0.27 °C
4,COC(=O)CC1CN(c2ncnc3[nH]ccc23)c2ccccc21 (centres unmarked) [Z4911],0.79 °C
5,CNc1cc(-c2noc(CN3CCCC3=O)n2)ncn1 [Z6028],0.33 °C
6,Cc1nc(S(=O)(=O)NCc2ccc(-c3ccncc3)cc2)cn1C [Z7041],0.35 °C
7,Clc1cc2c(N3CCCC(c4cccnc4)C3)ncnc2[nH]1 (centres unmarked) [Z8680],0.25 °C
8,CC1c2ccc(F)cc2CCN1C(=O)c1cccc(O)c1 (centres unmarked) [Z5167],0 °C
9,O=C(Nc1nc2ccccc2c(=O)[nH]1)c1cccnc1 [Z3628],0.49 °C
10,CN(Cc1ncc(Cl)n1C)c1ncnc(N)n1 [Z3291],0.98 °C
11,Cc1oc(-c2cccs2)nc1Cc1nc(-c2cncnc2N)no1 [Z3789],0.56 °C
12,Cc1ccc(-c2noc(CCCSC3CCCNC3=O)n2)cc1F (centres unmarked) [Z1121],0.57 °C
13,O=C(c1cccc(O)c1)N1CC=C(c2ccccc2)C1 [Z4141],0.71 °C
14,Clc1cc2c(N3CCCC(c4nnc[nH]4)C3)ncnc2[nH]1 (centres unmarked) [Z7156],0.86 °C
15,CN(c1cc(NC2CC2)ncn1)C1CCCN(c2cccnn2)C1 (centres unmarked) [Z3167],0.44 °C
16,Cc1cnc(COC(=O)C(C)(C)c2ccc(O)cc2)o1 [Z0329],0.06 °C
17,O=C(COC(=O)c1ccc2nsnc2c1)c1ccccc1 [Z2380],0.47 °C
18,O=C(Cc1ccc2c(c1)CCO2)OCc1cc2ccccc2[nH]c1=O [Z0132],0.21 °C
19,CN(Cc1nnc2c(=O)[nH]ccn12)c1cc(Cl)nc(C2CC2)n1 [Z7766],0.14 °C
20,N#Cc1cccc(-n2ccc(C(=O)OCc3cccnc3)n2)c1 [Z6395],0.18 °C
21,CC(C(=O)N1CCCC1c1nc(C(N)=O)no1)c1cccc(F)c1 (centres unmarked) [Z4135],0.15 °C
